# Reference: patent US11780826B2 (Amgen Inc., priority 2017, dated 2023)
# Test system: Bovine cardiac myofibrils
# Test: In vitro model of dose-dependent myofibril ATPase modulation (AC1.4, pyruvate kinase/lactate dehydrogenase-coupled ATPase assay at pCa25)
# Format: biochemical
# Details: concentration at which ATPase activity was 1.4-fold higher than the bottom of the dose curve, mean of a minimum of two independent tests
# Method in brief: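 ATP turnover tracked as NADH absorbance loss at 340 nm, coupled via pyruvate kinase/lactate dehydrogenase, with 1 mM ATP, 2 mM MgCl2 and 12 mM K-PIPES at pH 6.80 (22° C) under EGTA/CaCl2 calcium buffering. Substrate was detergent-treated bovine cardiac myofibrils; 4-parameter curve fit, AC1.4 averaged over at least two runs.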
row,SMILES,AC1.4
1,"COc1cc(C(F)(F)F)ccc1[C@H](NC(=O)[C@H]1C[C@H]2C[C@H]2N1C(=O)c1cccc(S(C)(=O)=O)c1)C1CC1 [Example 309, (1R,3R,5R)-N-((R)-cyclopropyl(2-methoxy-4-(trifluoromethyl)phenyl)methyl)-2-(3-(methylsulfonyl)benzoyl)-2-]",0.822 µM
2,"O=C(N[C@@H](c1ccc(C(F)(F)F)c(F)c1)C1CC1)[C@H]1C[C@H]2C[C@H]2N1C(=O)c1cccc(S(=O)(=O)C2CC2)c1 [Example 310, (1R,3R,5R)—N—((R)-cyclopropyl(3-fluoro-4-(trifluoromethyl)phenyl)methyl)-2-(3-(cyclopropylsulfonyl)benzoyl)-2-azabicyclo[3.1.0]hexane-3-carboxamide]",0.8061 µM
3,"O=C(NCc1ccc(C(F)(F)F)cc1)[C@H]1CC2(CC2)CN1C(=O)c1cccc(S(=O)(=O)N2CC3(CC3)C2)c1 [Example 312, (6R)-5-((3-(5-azaspiro[2.3]hex-5-ylsulfonyl)phenyl)carbonyl)-N-(4-(trifluoromethyl)benzyl)-5-azaspiro[2.4]heptane-6-carboxamide]",0.841 µM
4,"CC(C)N(C)S(=O)(=O)c1cccc(C(=O)N2CCC[C@@H]2C(=O)NCc2ccc(C(F)(F)F)cc2)c1 [Example 315, 1-(3-(methyl(2-propanyl)sulfamoyl)benzoyl)-N-(4-(trifluoromethyl)benzyl)-D-prolinamide]",0.8574 µM
5,"CS(=O)(=O)c1cccc(C(=O)N2[C@@H](C(=O)N[C@@H](c3cc(F)c(Cl)cc3F)C3(O)CC3)C[C@H]3C[C@H]32)c1 [Example 316, (1R,3R,5R)-N-((S)-(4-chloro-2,5-difluorophenyl)(1-hydroxycyclopropyl)methyl)-2-(3-(methylsulfonyl)benzoyl)-2-azabicyclo[3.1.0]hexane-3-carboxamide]",0.8325 µM
6,"C[C@H](C(=O)N[C@H](C)c1ccc(Cl)cc1F)N(C)C(=O)[C@H]1CCCN(S(=O)(=O)N2CC(C#N)C2)C1 [Example 317, (3S)-N-((2R)-1-(((1R)-1-(4-chloro-2-fluorophenyl)ethyl)amino)-l-oxo-2-propanyl)-1-((3-cyano-1-azetidinyl)sulfonyl)-N-methyl-3-piperidinecarboxamide]",0.8619 µM
7,"CS(=O)(=O)c1cc(C(=O)N2CCCC[C@@H]2C(=O)N[C@@H](c2cc(F)c(Cl)cc2F)C2CC2)ccn1 [Example 318, (2R)-N-((R)-(4-chloro-2,5-difluorophenyl)(cyclopropyl)methyl)-1-((2-(methylsulfonyl)-4-pyridinyl)carbonyl)-2-piperidinecarboxamide]",0.8652 µM
8,"CS(=O)(=O)c1cccc(C(=O)N2CC(F)(F)C[C@@H]2C(=O)N[C@@H](c2ccc(C(F)(F)F)cc2F)C2CC2)c1 [Example 320, N-((R)-cyclopropyl(2-fluoro-4-(trifluoromethyl)phenyl)methyl)-4,4-difluoro-1-(3-(methylsulfonyl)benzoyl)-D-prolinamide]",0.8613 µM
9,"C[C@@H](NC(=O)[C@H]1CCCN1C(=O)[C@H]1CCCN(S(=O)(=O)N2CC(S(C)(=O)=O)C2)C1)c1ccc(F)cc1F [Example 321, N-((1R)-1-(2,4-difluorophenyl)ethyl)-1-(((3S)-1-((3-(methylsulfonyl)-1-azetidinyl)sulfonyl)-3-piperidinyl)carbonyl)-D-prolinamide]",0.8725 µM
10,"O=C(N[C@@H](c1ccc(C(F)(F)F)cc1F)C1CC1)[C@H]1CCCCN1C(=O)c1cccc(C(O)(O)C(F)(F)F)c1 [Example 322, (2R)-N-((R)-cyclopropyl(2-fluoro-4-(trifluoromethyl)phenyl)methyl)-1-(3-(2,2,2-trifluoro-1,1-dihydroxyethyl)benzoyl)-2-piperidinecarboxamide]",0.8731 µM
11,"Cc1cc(C(=O)N2[C@@H](C(=O)N[C@@H](c3ccc(C(F)(F)F)cc3F)C3COC3)C[C@H]3C[C@H]32)cc(S(C)(=O)=O)c1 [Example 323, (1R,3R,5R)-N-((R)-(2-fluoro-4-(trifluoromethyl)phenyl)(3-oxetanyl)methyl)-2-(3-methyl-5-(methylsulfonyl)benzoyl)-2-azabicyclo[3.1.0]hexane-3-carboxamide]",0.8707 µM
12,"N#CC1CN(S(=O)(=O)c2cccc(C(=O)N3CCc4ccccc4C3C(=O)NCc3ccc(C(F)(F)F)cc3)c2)C1 (stereo not shown) [Example 324, 2-(3-((3-cyanoazetidin-1-yl)sulfonyl)benzoyl)-N-(4-(trifluoromethyl)benzyl)-1,2,3,4-tetrahydroisoquinoline-1-carboxamide]",0.8782 µM
13,"CS(=O)(=O)c1cccc(C(=O)N2CCOC[C@@H]2C(=O)N[C@@H](c2cc(F)c(Cl)cc2F)C2CC2)c1 [Example 328, (3R)-N-((R)-(4-chloro-2,5-difluorophenyl)(cyclopropyl)methyl)-4-(3-(methylsulfonyl)benzoyl)-3-morpholinecarboxamide]",0.8776 µM
14,"O=C(NCc1ccc(C(F)(F)F)cc1)[C@H]1CCCN1C(=O)c1cccc(S(=O)(=O)N2CC3(COC3)C2)c1 [Example 329, 1-((3-(2-oxa-6-azaspiro[3.3]hept-6-ylsulfonyl)phenyl)carbonyl)-N-(4-(trifluoromethyl)benzyl)-D-prolinamide]",0.8921 µM
15,"C[C@H](NC(=O)[C@H]1CCCN1C(=O)c1cccc(S(=O)(=O)N2CC(C#N)C2)c1)c1ccc(Cl)cc1 [Example 330, N-((1S)-1-(4-chlorophenyl)ethyl)-1-((3-((3-cyano-1-azetidinyl)sulfonyl)phenyl)carbonyl)-D-prolinamide]",0.8972 µM
16,"C[C@H](NC(=O)[C@@H](C)N(C)C(=O)c1cccc(S(=O)(=O)N2CC(C#N)C2)c1)c1ccc(Cl)cc1 [Example 331, N-((1R)-2-(((1S)-1-(4-chlorophenyl)ethyl)amino)-1-methyl-2-oxoethyl)-3-((3-cyano-1-azetidinyl)sulfonyl)-N-methylbenzamide]",0.8976 µM
17,"CC(C)C1(O)CN(S(=O)(=O)N2CCC[C@H](C(=O)N3CCC[C@@H]3C(=O)NCc3ccc(C(F)(F)F)cc3F)C2)C1 [Example 332, N-(2-fluoro-4-(trifluoromethyl)benzyl)-1-(((3S)-1-((3-hydroxy-3-(2-propanyl)-1-azetidinyl)sulfonyl)-3-piperidinyl)carbonyl)-D-prolinamide]",0.9097 µM
18,"C[C@H](C(=O)NCc1ccc(Cl)cc1)N(C)C(=O)c1cccc(S(=O)(=O)N2CC(C#N)C2)c1 [Example 337, N-((1R)-2-((4-chlorobenzyl)amino)-1-methyl-2-oxoethyl)-3-((3-cyano-1-azetidinyl)sulfonyl)-N-methylbenzamide]",0.9477 µM

# Further lines, results first:
row,AC1.4,SMILES
1,0.8393 µM,"O=C(NCc1ccc(C(F)(F)F)cc1)[C@H]1CCCN1C(=O)[C@H]1CCCN(S(=O)(=O)N2CC(OCC(F)F)C2)C1 [Example 311, 1-(((3S)-1-((3-(2,2-difluoroethoxy)-1-azetidinyl)sulfonyl)-3-piperidinyl)carbonyl)-N-(4-(trifluoromethyl)benzyl)-D-prolinamide]"
2,0.8424 µM,"N#CC1CN(S(=O)(=O)N2CCC[C@H](C(=O)N3CCC[C@@H]3C(=O)NCc3cc(F)cc(Cl)c3)C2)C1 [Example 313, N-(3-chloro-5-fluorobenzyl)-1-(((3S)-1-((3-cyano-1-azetidinyl)sulfonyl)-3-piperidinyl)carbonyl)-D-prolinamide]"
3,0.8692 µM,"N#C[C@@H]1CCN(S(=O)(=O)N2CCC[C@H](C(=O)N3CCC[C@@H]3C(=O)NCc3ccc(C(F)(F)F)cc3)C2)C1 [Example 319, 1-(((3S)-1-(((3R)-3-cyano-1-pyrrolidinyl)sulfonyl)-3-piperidinyl)carbonyl)-N-(4-(trifluoromethyl)benzyl)-D-prolinamide]"
4,0.8885 µM,N#CC1CN(S(=O)(=O)N2CCC[C@H](C(=O)N3[C@@H](C(=O)NCc4ccc(C(F)(F)F)nc4)C[C@H]4C[C@H]43)C2)C1 [Example 326]
5,0.8893 µM,"N#CC1(F)CN(S(=O)(=O)N2CCC[C@H](C(=O)N3CCC[C@@H]3C(=O)NCc3ccc(C(F)(F)F)cc3F)C2)C1 [Example 327, 1-(((3S)-1-((3-cyano-3-fluoro-1-azetidinyl)sulfonyl)-3-piperidinyl)carbonyl)-N-(2-fluoro-4-(trifluoromethyl)benzyl)-D-prolinamide]"
6,0.921 µM,"N#CC1CN(S(=O)(=O)N2CCC[C@H](C(=O)N3CCC[C@@H]3C(=O)NCc3ccc(Cl)c(C(F)(F)F)c3)C2)C1 [Example 333, N-(4-chloro-3-(trifluoromethyl)benzyl)-1-(((3S)-1-((3-cyano-1-azetidinyl)sulfonyl)-3-piperidinyl)carbonyl)-D-prolinamide]"
7,0.9294 µM,"Cc1ccc(CNC(=O)[C@H]2CCCN2C(=O)[C@@H]2CN(S(=O)(=O)N3CC(C#N)C3)CCN2)cc1F [Example 334, 1-(((2S)-4-((3-cyano-1-azetidinyl)sulfonyl)-2-piperazinyl)carbonyl)-N-(3-fluoro-4-methylbenzyl)-D-prolinamide]"
8,0.9362 µM,"N#CC1CN(S(=O)(=O)N2CCC[C@H](C(=O)N3CCC[C@@H]3C(=O)NCc3cccc(C(F)(F)F)c3F)C2)C1 [Example 335, 1-(((3S)-1-((3-cyano-1-azetidinyl)sulfonyl)-3-piperidinyl)carbonyl)-N-(2-fluoro-3-(trifluoromethyl)benzyl)-D-prolinamide]"
9,0.9372 µM,"Cc1ccc(CNC(=O)[C@H]2CCCN2C(=O)[C@H]2CCCN(S(=O)(=O)N3CC(C#N)C3)C2)cc1C [Example 336, 1-(((3S)-1-((3-cyano-1-azetidinyl)sulfonyl)-3-piperidinyl)carbonyl)-N-(3,4-dimethylbenzyl)-D-prolinamide]"
10,0.948 µM,"N#CC1CN(S(=O)(=O)N2CCC[C@H](C(=O)N3CCC[C@@H]3C(=O)NCc3c(F)c(F)c(F)c(F)c3F)C2)C1 [Example 338, 1-(((3S)-1-((3-cyano-1-azetidinyl)sulfonyl)-3-piperidinyl)carbonyl)-N-(pentafluorobenzyl)-D-prolinamide]"
